Data as given in patent US9255272B2, “Use of inhibitors of leukotriene B4 receptor BLT2 for treating asthma” (Korea University Research & Business Foundation, priority 2007, dated 2016).

Key:
Type in all cases: in vivo, mouse
IκB-α = IκB-α level in lung tissue (Western blot); settings: lung tissue extracts
Method: (§1) Female BALB/c mice and C57BL/6 mice (7 weeks old; 18-20 g) were obtained from Orientbion Inc. (Seoungnam, Korea). Sensitization and challenge were carried out as described previously with some modification (28). Briefly, female C57BL/6 mice (7 weeks old; 18-20 g) were immunized by intraperitoneal (i.p.) injection of 200 μg ovalbumin (OVA) emulsified in 2.5 mg of adjuvant aluminum hydroperoxide gel (alum) (Pierce, Rockford, Ill.). A second i.p. injection of 20 μg OVA adsorbed onto alum (2.5 mg) was administered 10 days later. After an additional 10 days, mice were exposed to an aerosol of 1% OVA in saline for 30 min daily on 3 consecutive days. On day 25, mice were finally challenged by provocation with 10% OVA aerosol. For inhibition experiments, sense or antisense BLT2 (1.6 mg/kg) was injected intravenously 24 h and then 1 h before the 10% OVA challenge. The mice were then killed on day 27 to assess asthmatic phenotypes. Antisense BLT2 oligonucleotide (5′-[…]-3′ (SEQ ID NO: 15)), sense BLT2 oligonucleotide (5′-[…]-3′ (SEQ ID NO: 16)).
Alternatively, BALB/c mice were sensitized on day 1 by i.p. injection of 20 μg OVA emulsified in 2.5 mg of alum (Pierce, Rockford, Ill.), followed by an identical booster injection administered on day 14. On days 21, 22 and 23 after initial sensitization, the mice were challenged for 30 min with an aerosol of 1% OVA using an ultrasonic nebulizer. […]

OVA-challenged mice = experiment: AHR (Penh) in response to methacholine in OVA-challenged mice; settings: for reduction of Penh (based on area-under-the-curve calculations): methacholine 6.25-50 mg/ml, 24 h after last OVA challenge
Method: as §1, with “16)). […]” for “16)).”
Airway AHR was measured in unrestrained, conscious mice 24 h after the final OVA challenge using a whole-body plethysmograph, as previously described (29). Mice were placed in a barometric plethysmographic chamber (All Medicus Co., Seoul, Korea), and baseline readings were taken and averaged for 3 min. […] Readings were taken and averaged for 3 min after each nebulization, and enhanced pause (Penh) was determined. Signals were analyzed to derive whole body flow parameters including respiratory rate, tidal volume, inspiratory time (Ti), expiratory time (Te)1. peak inspiratory flow (PIF), peak expiratory flow (PEF), and relaxation time (RT). […] Baseline Penh measurements for each animal were recorded for 3 min and averaged. Results are expressed as the percentage increase of Penh following challenge with each concentration of methacholine, where the baseline Penh (after saline challenge) is expressed as 100%. Penh values averaged for 3 min after each nebulization were evaluated. […]

NF-κB = NF-κB binding activity in lung nuclear extracts (EMSA)
Method: as §1
A double-strand oligonucleotide corresponding to the consensus NF-κB binding motif and a mutant sequence were purchased from Santa Cruz Biotechnology Inc. (Santa Cruz, Calif.) and labeled with γ-32P-ATP using T4 polynucleotide kinase (Roche, Germany). […]

**Q.** What does the source list for `CCc1cc(C(C)=O)c(O)cc1OCCCCCC(C)(C)c1nnn[nH]1` [LY255283, 1-[5-ethyl-2-hydroxy-4-[[6-methyl-6-(1H-tetrazol-5-yl)heptyl]oxy]phenyl]-ethanone, reference compound]?
**A.** reduction of IκB-α degradation following OVA challenge (IκB-α; LY255283 2.5 mg/kg 1 hr before 1% OVA challenge): −50%; reduction of Penh (based on area-under-the-curve calculations) (OVA-challenged mice; LY255283 2.5 mg/kg i.v.): −70%

**Q.** Which “reduction of IκB-α degradation following OVA challenge” value (IκB-α; antisense BLT2 1.6 mg/kg) does the source give for “antisense BLT2: Antisense BLT2 oligonucleotide 5′-GCTCAGTAGTGTCTCATTCC-3′ (SEQ ID NO: 15) (listed as DNA, chemistry not fully specified)” here?
**A.** −50%

**Q.** What about the “NF-κB binding activity elicited by OVA challenge” value (NF-κB; antisense BLT2 1.6 mg/kg i.v. 24 hr and 1 hr before provocation) of the same compound?
**A.** attenuated

**Q.** What about the “reduction of Penh (based on area-under-the-curve calculations)” value (OVA-challenged mice; antisense BLT2 1.6 mg/kg i.v.) of the same compound?
**A.** −70%

**Q.** For “antisense Rac: phosphorothioate 17-mer to the 5′ end of murine Rac mRNA, 5′-CACTTGATGGCCTGCAT-3′ (SEQ ID NO: 22) (listed as DNA, chemistry not fully specified)”, which “NF-κB binding activity elicited by OVA challenge” value (NF-κB; antisense Rac 1.25 mg/kg, tail vein) is on record?
**A.** attenuated

**Q.** And the “AHR after allergen challenge” value (OVA-challenged mice; mouse model system for asthma, antisense oligomers to Rac1)?
**A.** remarkably reduced
